Values quoted from earlier work, collected in PMC5333395, “Assessing histone demethylase inhibitors in cells: lessons learned” (Epigenetics & Chromatin, 2017).

What was measured:
Design in all cases: method as in PMID 26741168
[1] = biological target: T1, KDM3A (Homo sapiens, UniProt Q9Y4C1); settings: AlphaScreen; in vitro biochemical profiling previously reported; cited from earlier work
T1 sequence (Q9Y4C1 1-1321): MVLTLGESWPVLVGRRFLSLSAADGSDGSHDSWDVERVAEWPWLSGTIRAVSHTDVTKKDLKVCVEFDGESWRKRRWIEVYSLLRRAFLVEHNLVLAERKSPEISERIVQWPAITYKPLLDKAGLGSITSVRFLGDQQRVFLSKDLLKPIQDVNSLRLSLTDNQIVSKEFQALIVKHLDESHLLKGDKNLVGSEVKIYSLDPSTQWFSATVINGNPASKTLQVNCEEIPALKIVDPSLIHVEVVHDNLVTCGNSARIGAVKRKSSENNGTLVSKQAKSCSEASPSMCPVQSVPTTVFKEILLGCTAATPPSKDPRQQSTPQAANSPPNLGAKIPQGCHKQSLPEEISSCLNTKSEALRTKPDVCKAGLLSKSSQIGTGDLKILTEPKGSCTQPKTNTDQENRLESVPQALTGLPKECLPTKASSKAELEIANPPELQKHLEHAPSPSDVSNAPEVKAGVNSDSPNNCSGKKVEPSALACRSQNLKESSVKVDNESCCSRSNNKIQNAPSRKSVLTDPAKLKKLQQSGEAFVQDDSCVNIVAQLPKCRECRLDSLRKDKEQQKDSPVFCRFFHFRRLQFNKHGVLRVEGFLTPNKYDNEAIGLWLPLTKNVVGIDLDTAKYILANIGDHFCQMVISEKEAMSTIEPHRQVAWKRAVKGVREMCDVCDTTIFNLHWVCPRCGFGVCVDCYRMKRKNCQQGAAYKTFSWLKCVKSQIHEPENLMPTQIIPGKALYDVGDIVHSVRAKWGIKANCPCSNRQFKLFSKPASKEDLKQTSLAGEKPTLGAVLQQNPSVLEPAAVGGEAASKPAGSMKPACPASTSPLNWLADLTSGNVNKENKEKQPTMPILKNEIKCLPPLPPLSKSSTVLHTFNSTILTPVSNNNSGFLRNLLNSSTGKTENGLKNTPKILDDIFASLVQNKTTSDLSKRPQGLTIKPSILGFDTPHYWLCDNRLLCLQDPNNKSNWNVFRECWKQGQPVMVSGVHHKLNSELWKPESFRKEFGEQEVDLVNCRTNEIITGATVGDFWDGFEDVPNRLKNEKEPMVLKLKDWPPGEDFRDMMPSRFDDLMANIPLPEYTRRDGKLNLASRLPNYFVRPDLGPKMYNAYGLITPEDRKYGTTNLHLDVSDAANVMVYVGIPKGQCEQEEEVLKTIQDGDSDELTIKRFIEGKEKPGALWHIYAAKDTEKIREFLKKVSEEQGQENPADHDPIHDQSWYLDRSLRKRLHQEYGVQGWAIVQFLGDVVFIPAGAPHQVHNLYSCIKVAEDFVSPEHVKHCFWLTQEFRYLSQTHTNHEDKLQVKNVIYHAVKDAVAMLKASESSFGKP

[2] = biological target: T2, KDM2A (Homo sapiens, UniProt Q9Y2K7); settings: RapidFire under low iron condition (0.2 mM); previously reported; read-out: KDM2A IC50, in vitro, RapidFire; cited from earlier work
T2 sequence (Q9Y2K7 1-1162): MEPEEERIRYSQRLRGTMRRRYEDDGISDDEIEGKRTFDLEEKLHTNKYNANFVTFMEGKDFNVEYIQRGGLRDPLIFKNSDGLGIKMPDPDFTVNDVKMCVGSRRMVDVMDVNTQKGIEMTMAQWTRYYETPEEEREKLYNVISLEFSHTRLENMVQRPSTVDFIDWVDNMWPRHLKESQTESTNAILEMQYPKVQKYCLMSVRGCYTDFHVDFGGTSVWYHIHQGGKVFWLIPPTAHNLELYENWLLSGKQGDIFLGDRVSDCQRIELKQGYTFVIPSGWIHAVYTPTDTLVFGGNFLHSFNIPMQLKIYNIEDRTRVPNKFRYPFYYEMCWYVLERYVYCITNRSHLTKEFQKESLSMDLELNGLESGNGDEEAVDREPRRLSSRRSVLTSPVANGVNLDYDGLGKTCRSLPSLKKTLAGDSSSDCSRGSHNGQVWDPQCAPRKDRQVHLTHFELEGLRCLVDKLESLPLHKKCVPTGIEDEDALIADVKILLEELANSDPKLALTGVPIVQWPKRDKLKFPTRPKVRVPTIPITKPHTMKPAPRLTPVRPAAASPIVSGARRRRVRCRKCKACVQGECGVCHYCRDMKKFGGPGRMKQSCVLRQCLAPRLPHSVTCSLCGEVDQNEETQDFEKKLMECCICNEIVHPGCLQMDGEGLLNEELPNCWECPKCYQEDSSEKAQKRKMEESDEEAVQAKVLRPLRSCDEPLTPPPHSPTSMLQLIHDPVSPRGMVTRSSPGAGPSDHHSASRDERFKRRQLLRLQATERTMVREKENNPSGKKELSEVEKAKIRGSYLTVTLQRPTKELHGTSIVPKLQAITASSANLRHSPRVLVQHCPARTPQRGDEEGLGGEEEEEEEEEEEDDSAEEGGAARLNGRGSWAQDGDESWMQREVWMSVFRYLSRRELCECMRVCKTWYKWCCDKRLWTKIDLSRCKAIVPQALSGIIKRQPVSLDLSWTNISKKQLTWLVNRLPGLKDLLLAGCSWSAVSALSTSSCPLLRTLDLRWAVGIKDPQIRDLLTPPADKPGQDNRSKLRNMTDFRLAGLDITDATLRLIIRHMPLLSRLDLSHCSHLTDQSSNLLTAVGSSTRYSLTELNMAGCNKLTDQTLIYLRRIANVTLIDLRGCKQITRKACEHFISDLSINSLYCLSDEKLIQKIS

[3] = biological target: KDM5C (Homo sapiens, UniProt P41229); settings: AlphaScreen; in vitro biochemical profiling previously reported; cited from earlier work
Sequence of KDM5C (P41229 whole entry): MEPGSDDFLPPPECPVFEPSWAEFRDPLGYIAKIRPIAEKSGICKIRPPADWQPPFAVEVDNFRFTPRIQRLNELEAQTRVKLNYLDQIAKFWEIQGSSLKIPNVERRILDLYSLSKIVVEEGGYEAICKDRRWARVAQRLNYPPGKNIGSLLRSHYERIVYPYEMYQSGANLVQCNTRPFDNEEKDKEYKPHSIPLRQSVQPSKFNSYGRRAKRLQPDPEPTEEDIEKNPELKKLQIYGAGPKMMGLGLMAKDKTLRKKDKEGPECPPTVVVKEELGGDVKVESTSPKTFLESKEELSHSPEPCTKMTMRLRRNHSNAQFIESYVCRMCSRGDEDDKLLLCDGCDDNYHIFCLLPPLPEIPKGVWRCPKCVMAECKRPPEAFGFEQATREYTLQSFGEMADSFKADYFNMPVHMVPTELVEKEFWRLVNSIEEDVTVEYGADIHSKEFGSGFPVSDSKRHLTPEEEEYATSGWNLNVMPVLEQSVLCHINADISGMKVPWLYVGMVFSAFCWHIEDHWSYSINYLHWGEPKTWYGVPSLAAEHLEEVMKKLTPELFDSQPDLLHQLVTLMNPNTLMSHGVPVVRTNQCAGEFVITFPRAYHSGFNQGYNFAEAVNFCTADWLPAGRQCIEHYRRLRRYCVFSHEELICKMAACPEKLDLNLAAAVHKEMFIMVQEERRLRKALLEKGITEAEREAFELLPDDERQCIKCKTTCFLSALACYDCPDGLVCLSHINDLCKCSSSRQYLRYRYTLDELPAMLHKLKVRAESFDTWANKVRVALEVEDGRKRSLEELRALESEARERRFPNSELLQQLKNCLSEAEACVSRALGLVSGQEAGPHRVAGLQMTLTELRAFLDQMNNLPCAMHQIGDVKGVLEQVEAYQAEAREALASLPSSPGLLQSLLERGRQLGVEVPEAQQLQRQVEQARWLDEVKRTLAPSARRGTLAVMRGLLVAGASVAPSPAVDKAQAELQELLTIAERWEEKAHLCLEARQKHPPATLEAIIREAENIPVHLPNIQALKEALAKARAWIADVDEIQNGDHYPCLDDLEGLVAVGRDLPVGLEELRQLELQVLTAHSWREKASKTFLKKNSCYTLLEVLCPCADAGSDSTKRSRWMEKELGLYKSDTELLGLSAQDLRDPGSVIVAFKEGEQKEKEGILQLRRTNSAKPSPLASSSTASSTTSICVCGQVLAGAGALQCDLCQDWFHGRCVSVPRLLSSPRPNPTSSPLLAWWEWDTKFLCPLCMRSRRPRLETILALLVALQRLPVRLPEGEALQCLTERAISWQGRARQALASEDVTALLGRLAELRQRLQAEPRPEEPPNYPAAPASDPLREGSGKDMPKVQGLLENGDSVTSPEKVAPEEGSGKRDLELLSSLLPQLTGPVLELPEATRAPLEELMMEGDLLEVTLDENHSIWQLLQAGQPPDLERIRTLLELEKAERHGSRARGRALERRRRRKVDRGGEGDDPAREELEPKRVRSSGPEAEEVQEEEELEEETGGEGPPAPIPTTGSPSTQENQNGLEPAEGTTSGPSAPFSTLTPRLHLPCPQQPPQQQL

In the case of `Clc1ccc(N/N=C(\c2ccccc2)c2ccccn2)nc1` [JIB-04 E], the IC50 [1] is listed as 650 ± 50 nM, the IC50 [2] is listed as 1200 ± 10 nM and the IC50 [3] is listed as 622 ± 50 nM.
